From EP0917880A1, “Inclusion complex of diiodomethyl-p-tolylsulfone with cyclodextrin derivatives” (Wacker-Chemie GmbH, priority 1997, dated 1999)

Experiments:
[1] = water; cited from earlier work
[2] = test system: Rhizopus oryzae; assay: Determination of Minimum Inhibitory Concentrations (MIC), Sabouraud media; assay type: cell-based; settings: Rhizopus arrhizus, Amical in free form
Experimental: (§1) The efficacy of Amical in comparison to Amical/methyl-β-cyclodextrin inclusion compound against different microorganism was tested by measuring the Minimum Inhibitory Concentrations (MIC in µg/ml). For the cell cultures Sabouraud media were used. […]

[3] = test system: Aspergillus niger; assay: as above; assay type: cell-based; settings: Amical in free form
Experimental: as §1

[4] = test system: Penicillium citrinum; assay: as above; assay type: cell-based; settings: Amical in free form
Experimental: as §1

[5] = test system: Cladosporium cladosporioides; assay: as above; assay type: cell-based; settings: Amical in free form
Experimental: as §1

In the case of `Cc1ccc(S(=O)(=O)C(I)I)cc1` [Amical, diiodomethyl-p-tolylsulfone], the watersolubility [1] is listed as “less than 5 ppm”, the MIC [2] is listed as 7.5 to 14 µg/mL and the MIC [3] is listed as 1.2 µg/mL. For the same compound, the MIC [4] was 3.8 µg/mL and the MIC [5] was 1.3 µg/mL.
